Reference: patent publication EP2573192A1, “METHOD AND KIT FOR DIAGNOSING AIM-RELATED ILLNESS” (Miyazaki, Toru, priority 2010, dated 2011)

Target: FAS (Mus musculus, UniProt P19096)
Test: FAS activity of treated 3T3-L1 cells (method of Kelley, NADPH oxidation)
Assay type: cell-based
Conditions: C75 25 µM, 6 days; compared with rAIM
Description: The influence of AIM on FAS activity of adipocyte or adipose tissue was examined. FAS activity was measured by the method of Kelley (Kelley et al., Biochem. J., 1986, 235:87-90) with slight modification. 3T3-L1 adipocytes, or lysates of adipose tissue of obese mice was mixed with acetyl-CoA and NADPH (0.2 M calcium phosphate buffer [pH 7.0] containing 0.4 mM EDTA), and the mixture was placed in a spectrophotometer cuvette and maintained at 30°C. 20 µl of malonyl-CoA solution (0.2 mM) was added to start an enzyme reaction and decrease of OD was measured at a chart speed 2 cm/min. Based on the results, the enzyme activity of FAS was evaluated using the molar extinction coefficient of oxidized NADPH as 6220.
First, the FAS activity of 3T3-L1 cells treated for 6 days in the presence or absence of rAIM (5 µg/ml), and in the presence of C75 (25 µM) was measured. […] The samples were dissolved (lysed) and the FAS activity was measured. The data was converted to that based on FAS protein, according to the results of WB performed using the same sample.

Sequence of FAS (P19096 whole entry): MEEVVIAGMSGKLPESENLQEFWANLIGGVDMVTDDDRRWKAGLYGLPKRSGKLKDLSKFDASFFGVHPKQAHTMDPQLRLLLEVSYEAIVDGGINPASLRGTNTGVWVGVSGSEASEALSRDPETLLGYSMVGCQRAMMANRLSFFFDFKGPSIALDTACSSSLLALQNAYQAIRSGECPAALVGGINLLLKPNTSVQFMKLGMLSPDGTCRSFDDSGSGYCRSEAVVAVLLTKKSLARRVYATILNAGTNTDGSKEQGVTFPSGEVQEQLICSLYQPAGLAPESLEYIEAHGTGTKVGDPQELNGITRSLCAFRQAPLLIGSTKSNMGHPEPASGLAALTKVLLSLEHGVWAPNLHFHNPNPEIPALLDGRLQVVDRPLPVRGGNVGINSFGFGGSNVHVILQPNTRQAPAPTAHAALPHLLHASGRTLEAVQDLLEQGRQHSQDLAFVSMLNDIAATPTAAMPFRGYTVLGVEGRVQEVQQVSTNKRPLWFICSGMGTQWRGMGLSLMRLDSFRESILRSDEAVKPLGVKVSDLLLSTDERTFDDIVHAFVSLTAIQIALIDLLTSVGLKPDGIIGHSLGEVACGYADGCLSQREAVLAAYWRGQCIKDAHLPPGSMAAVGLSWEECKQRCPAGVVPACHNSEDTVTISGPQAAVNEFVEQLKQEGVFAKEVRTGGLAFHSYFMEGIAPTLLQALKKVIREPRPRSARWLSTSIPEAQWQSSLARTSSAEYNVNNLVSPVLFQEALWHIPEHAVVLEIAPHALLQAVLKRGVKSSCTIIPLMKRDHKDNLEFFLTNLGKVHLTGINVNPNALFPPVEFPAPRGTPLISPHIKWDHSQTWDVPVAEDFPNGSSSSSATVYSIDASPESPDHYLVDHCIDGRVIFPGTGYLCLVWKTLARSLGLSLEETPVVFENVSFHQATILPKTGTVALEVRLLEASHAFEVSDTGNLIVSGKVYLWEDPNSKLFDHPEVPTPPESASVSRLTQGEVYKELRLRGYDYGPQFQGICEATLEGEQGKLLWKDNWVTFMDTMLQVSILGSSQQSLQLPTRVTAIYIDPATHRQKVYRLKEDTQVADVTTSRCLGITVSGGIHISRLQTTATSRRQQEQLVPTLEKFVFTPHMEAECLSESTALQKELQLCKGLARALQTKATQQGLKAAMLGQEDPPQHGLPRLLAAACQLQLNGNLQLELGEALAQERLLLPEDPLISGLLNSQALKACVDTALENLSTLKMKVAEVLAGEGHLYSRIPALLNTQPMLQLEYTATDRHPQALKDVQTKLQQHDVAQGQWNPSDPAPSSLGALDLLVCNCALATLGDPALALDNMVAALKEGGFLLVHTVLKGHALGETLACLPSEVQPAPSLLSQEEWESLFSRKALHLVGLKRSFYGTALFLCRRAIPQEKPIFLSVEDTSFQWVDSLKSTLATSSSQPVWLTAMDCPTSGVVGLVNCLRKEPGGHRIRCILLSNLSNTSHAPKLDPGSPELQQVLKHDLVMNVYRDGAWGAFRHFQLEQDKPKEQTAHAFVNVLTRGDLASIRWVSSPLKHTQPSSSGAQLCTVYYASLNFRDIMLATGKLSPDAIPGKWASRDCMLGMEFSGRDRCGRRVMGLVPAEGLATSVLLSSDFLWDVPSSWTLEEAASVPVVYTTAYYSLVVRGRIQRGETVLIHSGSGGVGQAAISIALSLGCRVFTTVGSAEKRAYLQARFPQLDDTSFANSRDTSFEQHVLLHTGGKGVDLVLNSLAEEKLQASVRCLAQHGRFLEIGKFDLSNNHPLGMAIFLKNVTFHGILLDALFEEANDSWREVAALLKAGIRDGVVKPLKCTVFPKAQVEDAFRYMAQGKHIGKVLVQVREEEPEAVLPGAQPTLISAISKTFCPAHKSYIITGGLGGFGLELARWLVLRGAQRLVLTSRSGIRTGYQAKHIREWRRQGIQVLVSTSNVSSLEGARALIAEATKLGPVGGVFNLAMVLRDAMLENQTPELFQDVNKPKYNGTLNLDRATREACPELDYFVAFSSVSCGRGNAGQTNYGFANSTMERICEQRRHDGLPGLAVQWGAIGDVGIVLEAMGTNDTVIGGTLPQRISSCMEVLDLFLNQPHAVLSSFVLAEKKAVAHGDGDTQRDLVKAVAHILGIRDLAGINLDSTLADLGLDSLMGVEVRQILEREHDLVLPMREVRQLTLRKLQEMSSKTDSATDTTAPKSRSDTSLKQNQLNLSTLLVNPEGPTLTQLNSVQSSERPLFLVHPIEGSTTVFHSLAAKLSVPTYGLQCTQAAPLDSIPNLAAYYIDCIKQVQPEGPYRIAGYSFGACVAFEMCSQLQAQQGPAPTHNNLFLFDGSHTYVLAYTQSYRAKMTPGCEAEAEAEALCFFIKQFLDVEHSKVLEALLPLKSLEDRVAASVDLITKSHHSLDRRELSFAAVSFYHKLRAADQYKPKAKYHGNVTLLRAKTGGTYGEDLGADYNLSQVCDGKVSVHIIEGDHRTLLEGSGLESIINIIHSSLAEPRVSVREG

level of suppression of FAS activity in 3T3-L1 adipocytes: level of suppression was the same
SMILES: C=C1C(=O)OC(CCCCCCCC)C1C(=O)O (stereo not shown) [C75]
